In patent US9650339B2, “Inhibitors of histone demethylases” (Gilead Sciences, Inc., priority 2013, dated 2017):

Columns and labels:
[1] = molecular target: T1, KDM4C (Homo sapiens, UniProt Q9H3R0); assay: Histone lysine demethylase immunofluorescence assay, U2OS cells transfected with KDM4C; format: cell-based; conditions: U2OS cells transfected with pCMVHA KDM4C; mark detected H3K9me3; 20 hours
T1 construct: Full length; host or cells: U2OS
T1 sequence (Q9H3R0 1-1056): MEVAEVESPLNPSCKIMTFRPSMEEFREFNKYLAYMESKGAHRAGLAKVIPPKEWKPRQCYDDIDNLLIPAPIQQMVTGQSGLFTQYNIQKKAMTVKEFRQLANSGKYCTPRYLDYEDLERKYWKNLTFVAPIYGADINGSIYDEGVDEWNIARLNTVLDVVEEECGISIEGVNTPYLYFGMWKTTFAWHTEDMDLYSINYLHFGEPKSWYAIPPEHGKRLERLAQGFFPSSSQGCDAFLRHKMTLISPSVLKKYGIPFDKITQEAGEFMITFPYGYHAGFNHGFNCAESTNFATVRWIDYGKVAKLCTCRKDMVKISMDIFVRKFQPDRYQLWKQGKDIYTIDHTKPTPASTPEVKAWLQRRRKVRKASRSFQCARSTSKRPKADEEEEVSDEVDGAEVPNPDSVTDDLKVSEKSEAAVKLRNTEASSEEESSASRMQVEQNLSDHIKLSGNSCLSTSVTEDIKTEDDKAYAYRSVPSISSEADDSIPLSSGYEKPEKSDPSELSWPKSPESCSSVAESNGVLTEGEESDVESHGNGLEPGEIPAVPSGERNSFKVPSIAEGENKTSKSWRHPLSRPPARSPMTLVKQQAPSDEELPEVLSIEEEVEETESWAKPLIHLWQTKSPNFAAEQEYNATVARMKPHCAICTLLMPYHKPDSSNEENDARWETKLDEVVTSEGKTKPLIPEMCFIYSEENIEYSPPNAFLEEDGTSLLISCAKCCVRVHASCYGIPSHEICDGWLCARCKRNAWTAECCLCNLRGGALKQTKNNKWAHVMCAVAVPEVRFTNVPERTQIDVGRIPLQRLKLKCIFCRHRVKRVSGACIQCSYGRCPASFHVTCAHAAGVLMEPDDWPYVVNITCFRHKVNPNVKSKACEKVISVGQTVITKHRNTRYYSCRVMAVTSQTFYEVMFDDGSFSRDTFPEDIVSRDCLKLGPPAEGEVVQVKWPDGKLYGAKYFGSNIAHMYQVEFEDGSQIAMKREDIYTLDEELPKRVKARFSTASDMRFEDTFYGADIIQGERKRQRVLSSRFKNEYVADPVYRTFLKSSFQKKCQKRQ
Method in brief: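 U2OS cells were transiently transfected with HA-tagged demethylase and reseeded after 6 h into compound-containing DMEM/10% FBS for 20 h. Cells were fixed in formaldehyde and immunostained for HA and the relevant histone methyl mark, then imaged. IC50 is based on mean mark staining in HA+ transfected cells.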

[2] = test system: H3K4me3 mark; assay: Histone lysine demethylase immunofluorescence assay, non-transfected U2OS cells; format: cell-based; conditions: Homo sapiens, staining of the H3K4me3 mark, 20 hours incubation with compound
Description: U2OS cells were harvested and seeded into multi well plates into media containing compound. The media used was DMEM containing 5% FBS and pen/strep. 20 hours after incubation of cells with compounds, the cells were washed once in PBS, harvested by fixation with formaldehyde 4% aqueous solution, and washed in PBS. Subsequently, the cells were permeabilized in PBS with 0.2% Triton X-100. Blocking was performed in PBS with 0.2% Triton X-100 and 5% FBS. The cells were incubated with αH3K4me3 primary antibody (Cell Signaling, #9751S) in blocking solution over night at 4° C. After incubation with primary antibody, the cells were washed with PBS, incubated with secondary antibody (Alexa fluor 594 goat anti rabbit IgG, Invitrogen, A11012) and Hoechst, (Sigma, 33342) in blocking solution, and washed again with PBS. Finally, PBS was added and high throughput imaging and analysis were performed by an IN Cell Analyzer 1000 (GE Healthcare). The IC50 values were based on an average measure of the staining of the H3K4me3 mark in cells.

[3] = test system: MCF7 cells; assay: Cell proliferation assay MCF7; format: cell-based; conditions: MCF7 human breast cancer cells; 120 hours; ATPlite 1 Step
Method in brief: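 After 120 h of compound exposure (duplicates, DMSO at most 0.5%) in DMEM GlutaMAX with 10% FBS, ATPlite 1 Step luminescence measured cellular ATP. Compound was added 24 h after seeding, at a density chosen for ~90% confluence at the end.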

[4] = molecular target: T2, KDM7 (PHF8) (Homo sapiens, UniProt Q9UPP1); assay: Histone lysine demethylase AlphaLISA assay, KDM7; format: biochemical; conditions: read-out: PHF8 HDME Inhibition IC50
T2 construct: KDM7 (PHF8); BRIC; 1-1322; Bac
Method in brief: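 AlphaLISA demethylation readout: enzyme preincubated 10 min, then 10 min with compounds in 3% DMSO buffer, before biotinylated methyl-lysine histone peptide substrate with 25 μM L-Asc and 10 μM α-KG, room temperature. Acceptor beads then streptavidin donor beads added, dark incubation, plates read.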

T2 sequence (Q9UPP1 37-440 limits assumed): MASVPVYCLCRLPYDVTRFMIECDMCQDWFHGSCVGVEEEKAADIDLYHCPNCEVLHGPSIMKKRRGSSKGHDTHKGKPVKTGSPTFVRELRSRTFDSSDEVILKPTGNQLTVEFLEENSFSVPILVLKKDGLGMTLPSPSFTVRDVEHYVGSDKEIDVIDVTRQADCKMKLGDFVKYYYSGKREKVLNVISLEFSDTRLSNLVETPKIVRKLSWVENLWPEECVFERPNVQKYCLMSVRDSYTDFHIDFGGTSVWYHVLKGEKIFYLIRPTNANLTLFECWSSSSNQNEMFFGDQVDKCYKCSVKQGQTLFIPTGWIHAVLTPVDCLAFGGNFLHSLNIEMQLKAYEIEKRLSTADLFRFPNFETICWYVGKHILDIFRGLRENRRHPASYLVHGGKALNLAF

Row | Structure (SMILES) | IC50 [1] [nM] | IC50 [2] [nM] | EC50 [3] [nM] | IC50 [4] [nM]
1 | CCN(CC)CCCCNCc1cc(/C=N/CC(F)(F)C(F)(F)F)ccn1 [Compound 62, {[2-({[4-(diethylamino)-butyl]amino}methyl)pyridin-4-yl]methylidene} (2,2,3,3,3-pentafluoropropyl)-amine] | 250 to 2500 | < 250 | < 250 | > 2500
2 | CN(C)C(=O)CNCc1cc(/C=N/CCC2CCCCC2)ccn1 [Compound 36, 2-[({4-[[(2-cyclohexylethyl)imino]-methyl]pyridin-2-yl}methyl)amino]-N,N-dimethylacetamide] | > 2500 | < 250 | 250 to 2500 | 250 to 2500
3 | CN(C)C(=O)CNCc1cc(/C=N\C2CC2)ccn1 [Compound 33] | 250 to 2500 | 250 to 2500 |  | > 2500
4 | N#CCNCc1ccnc(CNCCCCN(Cc2ccccc2)C2CC2)c1 [Compound 23, 2-[({2-[({4-[benzyl(cyclopropyl)-amino]butyl}amino)-methyl]pyridin-4-yl}methyl)amino]-acetonitrile] | > 2500 | < 250 |  | > 2500
5 | CCN(CCN(C)C)C(=O)CNCc1cc(C2OCC(Cc3ccccc3)CN2C(=O)C(F)(F)F)ccn1 (stereo not drawn) [Compound 90, 2-[({4-[5-benzyl-3-(trifluoroacetyl)-1,3-oxazinan-2-yl]pyridin-2-yl}methyl)amino]-N-[2-(dimethylamino)-ethyl]-N-ethylacetamide] |  | < 250 | < 250 | > 2500
6 | CCN(CCN(C)C)C(=O)CNCc1cc(C=O)ccn1 [Compound 101] | 250 to 2500 | < 250 | < 250 | 250 to 2500
7 | CN(C)C(=O)CNCc1cc(CNCC#N)ccn1 [Compound 13, 2-{[(4-{[(cyanomethyl)amino]-methyl}pyridin-2-yl)methyl]amino}-N,N-dimethylacetamide] | 250 to 2500 | 250 to 2500 |  | > 2500
8 | CCN(CC)CCCCNCc1cc(C=O)ccn1 [Compound 107, 2-({[4-(diethylamino)-butyl]amino}-methyl)pyridine-4-carbaldehyde] | 250 to 2500 | < 250 | < 250 | > 2500
9 | CNC(C#N)c1ccnc(CNCCCN(C)C)c1 (stereo not drawn) [Compound 24, 2-[2-({[3-(dimethylamino)propyl]-amino}methyl)pyridin-4-yl]-2-(methylamino)-acetonitrile] | > 2500 | < 250 |  | > 2500
10 | C(=N\C1CC1)/c1ccnc(CNCCCCN2CCC2)c1 [Compound 44, N-{[2-({[4-(azetidin-1-yl)butyl]amino}methyl)-pyridin-4-yl]methylidene}-cyclopropanamine] |  | < 250 | < 250 | > 2500
11 | CN(C)C/C=C/CNCc1cc(C=O)ccn1 [Compound 98, 2-({[(2E)-4-(dimethylamino)but-2-en-1-yl]amino}-methyl)pyridine-4-carbaldehyde] | 250 to 2500 |  | < 250 | > 2500
12 | O=Cc1ccnc(CNCC(=O)N2CCC[C@@H]2CN2CCCC2)c1 [Compound 102, 2-[({2-oxo-2-[(2R)-2-(pyrrolidin-1-ylmethyl)pyrrolidin-1-yl]ethyl}amino)-methyl]pyridine-4-carbaldehyde] | 250 to 2500 |  | 250 to 2500 | > 2500
13 | CCCCCCCC/N=C/c1ccnc(CNCC(=O)N(CC)CC)c1 [Compound 58, N,N-diethyl-2-[({4-[(octylimino)methyl]-pyridin-2-yl}methyl)amino]-acetamide] |  | > 2500 | > 2500 | > 2500
14 | C(=N/C1CC1)/c1ccnc(CNCCCN2CCCC2)c1 [Compound 42, N-{[2-({[3-(pyrrolidin-1-yl)propyl]amino}-methyl)pyridin-4-yl]methylidene}-cyclopropanamine] | 250 to 2500 |  | < 250 | > 2500

Further lines, results first:

Row | IC50 [1] [nM] | IC50 [2] [nM] | EC50 [3] [nM] | IC50 [4] [nM] | Structure (SMILES)
15 | 250 to 2500 | < 250 | < 250 | 250 to 2500 | CCN(CCN(C)C)C(=O)CNCc1cc(CN)ccn1 [Compound 4, 2-({[4-(aminomethyl)pyridin-2-yl]methyl}amino)-N-[2-(dimethylamino)ethyl]-N-ethylacetamide]
16 | > 2500 | < 250 | < 250 | > 2500 | O=Cc1ccnc(CNCCCN2CCCC2)c1 [Compound 111, 2-({[3-(pyrrolidin-1-yl)propyl]amino}-methyl)pyridine-4-carbaldehyde]
17 | > 2500 | < 250 | 250 to 2500 | > 2500 | NCc1ccnc(CNCCCCN2CCC2)c1 [Compound 7, [2-({[4-(azetidin-1-yl)butyl]amino}methyl)-pyridin-4-yl]-methanamine]
18 | 250 to 2500 | < 250 | < 250 | 250 to 2500 | CN(C)C/C=C/CNCc1cc(/C=N/C2CC2)ccn1 [Compound 43, N-{[2-({[(2E)-4-(dimethylamino)but-2-en-1-yl]amino}-methyl)pyridin-4-yl]methylidene}-cyclopropanamine]
19 | 250 to 2500 | < 250 | < 250 | > 2500 | CN1CCC(CNCc2cc(C=O)ccn2)CC1 [Compound 100, 2-({[(1-methyl-piperidin-4-yl)methyl]amino}-methyl)pyridine-4-carbaldehyde]
20 |  | < 250 | < 250 | > 2500 | CCN(CCN(C)C)C(=O)CNCc1cc(CNC(=O)C(F)(F)F)ccn1 [Compound 25, N-[(2-{[({[2-(dimethylamino)ethyl]-(ethyl)carbamoyl}-methyl)amino]methyl}-pyrtdin-4-yl)methyl]-2,2,2-trifluoroacetamide]
21 | 250 to 2500 |  | < 250 | > 2500 | CCN(CC)CCCCNCc1cc(CN)ccn1 [Compound 5, [2-({[4-(diethylamino)butyl]-amino}methyl)pyridin-4-yl]methanamine]
22 | 250 to 2500 |  | < 250 | 250 to 2500 | CCN(CCN(C)C)C(=O)CNCc1cc(/C=N/CCO)ccn1 [Compound 66]
23 |  | < 250 | < 250 | > 2500 | CCN(CCN(C)C)C(=O)CNCc1cc(C2OCC3(CC3)CN2C(=O)C(F)(F)F)ccn1 (stereo not drawn) [Compound 91, N-[2--(dimethylamino)-ethyl]-N-ethyl-2-[({4-[7-(trifluoroacetyl)-5-oxa-7-azaspiro[2.5]-octan-6-yl]pyridin-2-yl}methyl)amino]-acetamide]
24 |  | 250 to 2500 | > 2500 | > 2500 | CCN(CC)C(=O)CNCc1cc(/C=N/CCC2CCCCC2)ccn1 [Compound 57, 2-[({4-[[(2-cyclohexylethyl)imino]-methyl]pyridin-2-yl}methyl)amino]-N,N-diethylacetamide]
25 | 250 to 2500 |  | < 250 | > 2500 | CN(C)CCC/N=C/c1ccnc(CNCCCN(C)C)c1 [Compound 37, [3-(dimethylamino)propyl]-({4-[{[3-(dimethylamino)propyl]-imino}methyl]pyridin-2-yl}methyl)amine]
